Measurements as given in paper PMC12209172, “Poly(ADP-ribose)polymerase 2 is zinc-dependent enzyme and nucleosome reorganizer” (Cellular and Molecular Life Sciences: CMLS, 2025).
Several values for one entry are separate records, joined by “and”; a condition that tells them apart may be missing. Equal entries are not always repeated. Where two headings read alike, the source gives them in different places.

Legend:
[1] = target: Nucleosome assembled on a fluorescently labelled 187-bp DNA template (603 positioning sequence) with histones of chicken donor chromatin (chicken); assay: native gel or EMSA + other: single particle fluorescence intensity analysis in the gel; nucleosomes NP with PARP2 (50 nM) in buffer A with 0.3 mM Zn2+; native PAGE
PARP2 (Mus musculus) [2] = target: PARP2 (Mus musculus) (UniProt O88554); conditions: cited from earlier work
PARP2 (Mus musculus) [3] = target: PARP2 (Mus musculus) (UniProt O88554); conditions: cited from earlier work; remark: listed apart in the source
PARP2 [4] = target: T1, PARP2 (Mus musculus, UniProt O88554); assay: Circular dichroism spectroscopy of PARP2 (BeStSel secondary structure analysis); parameters: Recombinant mouse full-length PARP2 was obtained in the baculovirus expression system; made in house; host or cells: Sf9 insect cells (baculovirus); gift of Prof; O. Lavrik; conditions: 0.3 mM Zn2+, 0.7 mM Ca2+ or 0.7 mM Mg2+
Experimental: (§1) CD spectra of proteins were recorded within the 190-250 nm spectral range with 0.2 nm step using Jasco-810 spectrophotometer (Jasco, Japan) and the quartz […]® cuvette of 0.1 mm thickness (Hellma, Germany. Secondary structure analysis was performed using BeStSel webserver. To improve the reliability of the analysis, the content of canonical secondary structures of various types was predicted for 3-6 independent measurements, and the values were averaged. The statistical significance of the secondary structure difference was determined using the multiple t-test.

WGR domain of PARP2 [5] = target: T2, WGR domain of PARP2 (Homo sapiens, UniProt Q9UGN5); assay: Tryptophan fluorescence spectroscopy of the WGR domain titrated with divalent cations (one site binding fit); conditions: for Kd: Trp fluorescence, one site binding fit, 10 mM HEPES pH 8.0, 150 mM NaCl, residual EDTA present, read-out: dissociation constant of the divalent cation-WGR domain complex; for effect of ions on intensity of tryptophan fluorescence of the WGR domain: WGR domain 5 µM
T2 construct: WGR domain of PARP2 (residues 77–220) into pET-15b-TEV expression vector; 6xHis (pET-15b-TEV) (N, cleaved yes); made in house; host or cells: Escherichia coli Rosetta2 (DE3) pLysS
Experimental: Fluorescence spectra of Trp residues were measured in the 300–450 nm spectral range at the 270 nm excitation wavelengths using the Cary Eclipse spectrofluorometer (Varian/Agilent, USA).
Fluorescence of WGR domain was measured at 0.5 or 5 µM in a buffer containing 10 mM HEPES (pH 8.0), 150 mM NaCl and 0.73 or 7.3 µM EDTA, respectively. Solutions were complemented with ZnCl2 (0.2–308 µM) or MgCl2 (15–5000 µM), or CaCl2 (8–5000 µM) dissolved in a buffer containing 10 mM HEPES (pH 8.0), 150 mM NaCl. Intensity of the measured spectra was corrected for the concomitant dilution of the WGR domain. Integral intensities (Ifl.) of fluorescence spectra were averaged over three independent measurements (mean ± SEM) and used to plot the corresponding Ifl. vs. ion concentration graphs. Data were fitted with the one site binding equation:2 [drawing 2]
Where C is the concentration of divalent cations, Kd is a dissociation constant of the complex, Im and Ifl0 are maximal and initial values of Ifl., respectively.

[6] = target: T3, PARP2-nucleosome complexes (Mus musculus, UniProt O88554); assay: spFRET microscopy in solution of nucleosomes and PARP2-nucleosome complexes; conditions: for effect of ions on the nucleosome structure: NP nucleosomes without PARP2, 5 mM ions; for effect of ions on the structure of nucleosomes in PARP2-nucleosome complexes: Zn2+ 0.3 mM, Ca2+ 5 mM or Mg2+ 5 mM
T3 construct: Recombinant mouse full-length PARP2 was obtained in the baculovirus expression system; made in house; host or cells: PARP2: Sf9 insect cells (baculovirus), gift of Prof; O. Lavrik; nucleosomes assembled in house
Experimental: In the study of nucleosome-PARP2 interactions, nucleosomes (1-2 nM) were incubated with PARP2 (12.5-200 nM) in buffer A (50 mM Tris-HCl pH 7.5; 40 mM NaCl; 0.5 mM β-mercaptoethanol (β-ME); 0.1% NP40) at 25 °C for 30 min. When indicated, buffer A was supplemented with 50 μM - 5 mM ZnCl2, 5 mM CaCl2 or 5 mM MgCl2. […] […] measurements in solution were performed as described previously. Each measured single nucleosome was characterized by FRET between Cy3 and Cy5 labels calculated as a proximity ratio (EPR):1 [drawing 1] Where I3 and I5 are fluorescence intensities of Cy3 and Cy5, respectively, and coefficients 0.19 and 0.81 provide correction for the spectral cross-talk between Cy3 and Cy5 detection channels. EPR is a FRET efficiency not corrected for quantum yields of labels and an instrumentation factor. Relative frequency distributions of nucleosomes by EPR values, i.e. EPR profiles, (2000-5000 nucleosomes per experiment; 3 independent experiments) were plotted and further analyzed as a superposition of several normal (Gaussian) distributions for nucleosomes or nucleosome-PARP2 complexes. Since nucleosomes tend to aggregate when PARP2 is added (especially at high concentrations), treatment of signals measured from nucleosomes and their complexes included mandatory rejection of signals from any aggregates that are clearly recognized due to their slow diffusion rate and/or abnormally high fluorescence intensity.

PARP2 [7] = target: T1, PARP2; assay: Western blot analysis of NAD+-dependent PARylation by PARP2 in PARP2-nucleosome complexes; format: biochemical; parameters: Recombinant mouse full-length PARP2 was obtained in the baculovirus expression system; made in house; host or cells: PARP2: Sf9 insect cells (baculovirus), gift of Prof; O. Lavrik; nucleosomes assembled in house; conditions: for effect of EDTA on PARylation: EDTA 10 mM
Experimental: Probes were subjected to electrophoresis in 4–12% bis-Tris gradient gel in the NuPAGE™ MES SDS Running Buffer at 130 V. […] The membrane was incubated for 60 min in the PBS-T solution supplemented with the 5% skimmed milk. Then the membrane was incubated with mouse monoclonal antibodies 10 H followed by incubation with the secondary anti-mouse antibodies conjugated with horseradish peroxidase (Bio-Rad, Hercules, CA, USA). The washing procedure was carried out after each step of incubation. Immunodetection was performed using the Super Signal West Pico Chemiluminescent Substrate (Thermo Fisher Scientific, Waltham, MA, USA) for 3 min. The Western blot experiments were performed in three independent repetitions.

WGR domain of PARP2 [8] = target: T2, WGR domain of PARP2; assay: Circular dichroism spectroscopy of the WGR domain (BeStSel secondary structure analysis); parameters: content of a-helix in the WGR domain / content of b-sheet in the WGR domain / content of turn in the WGR domain / content of random coil in the WGR domain: unit not given here; conditions: for content of a-helix in the WGR domain / content of b-sheet in the WGR domain / content of random coil in the WGR domain / content of turn in the WGR domain: 5 mM ion, independent measurements
Experimental: as §1

PARP2 (Mus musculus) [9] = assay: EMSA; conditions: no divalent ions; EMSA: 2-3 nM nucleosomes, 5% PAGE in 0.2x TBE, 140 V, 4 C; divalent ions as given per row; binding buffer not in the material
DNA = conditions: read-out: Kd of PARP2 complex with DNA, cited from earlier work
NP nucleosomes = target: T4, NP nucleosomes (Mus musculus, UniProt O88554); assay: EMSA of PARP2-nucleosome complexes (non-denaturing PAGE, FRET-in-gel); format: binding, chicken
T4 construct: Recombinant mouse full-length PARP2 was obtained in the baculovirus expression system; made in house; host or cells: PARP2: Sf9 insect cells (baculovirus), gift of Prof; O. Lavrik; nucleosomes assembled in house
Experimental: Sample preparation for EMSA was the same as for spFRET microscopy, although a slightly higher concentration of nucleosomes (2–3 nM) was used. The PARP2-nucleosome complexes were subjected to 5% polyacrylamide gel in 0.2×TBE buffer. Electrophoresis was performed under native conditions at 140 V, + 4 °C for ∼1.5 h. The gels were scanned using Amersham Typhoon RGB imager (Cytiva, Sweden). Fluorescence was excited in the gel at the 532 nm wavelength and recorded in the 570–610 nm (Cy3 signal) and 650–700 nm (FRET signal of Cy5) spectral regions. The resulting images were obtained in green (Cy3 signal) and red (FRET signal of Cy5) colors and merged.

nucleosome = conditions: read-out: Kd of PARP2-nucleosome complex, cited from earlier work

T2 sequence (Q9UGN5 77-220): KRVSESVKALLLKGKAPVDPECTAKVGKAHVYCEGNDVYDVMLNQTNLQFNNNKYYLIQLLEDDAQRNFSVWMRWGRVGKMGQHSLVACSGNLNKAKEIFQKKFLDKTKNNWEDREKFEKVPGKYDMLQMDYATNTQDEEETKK

Recombinant mouse full-length PARP2 (poly(ADP-ribose)polymerase 2) (from UniProt O88554 1-559) (enzyme)
stoichiometry N (PARP2 per nucleosome) [1]: 1 and 2

PARP2 (from UniProt O88554)
Kd (PARP2 (Mus musculus) [2]): 152 nM | Kd (PARP2 (Mus musculus) [3]): 101 nM

[Cl-].[Cl-].[Mg+2] [Mg2+, MgCl2]
effect of ions on the CD spectrum / conformation of PARP2 (PARP2 [4]): similar | Kd (WGR domain of PARP2 [5]): 180000 ± 80000 nM | effect of ions on intensity of tryptophan fluorescence of the WGR domain (WGR domain of PARP2 [5]): considerably lower than the effect of Zn^2+ ions | effect of ions on the nucleosome structure [6]: minimally affect | effect of ions on the structure of nucleosomes in PARP2-nucleosome complexes ([6]; PARP2 50 nM): not changed | effect of ions on efficiency of PARP2-mediated PARylation (PARP2 [7]; Mg2+ 5 mM or Zn2+ 0.3 mM, PARP2 100 nM, nucleosomes 3 nM, NAD+ 0-5 µM): increase | effect of ions on the structure of the WGR domain (CD) (WGR domain of PARP2 [8]): only minimal changes | content of a-helix in the WGR domain (WGR domain of PARP2 [8]): 13.8 and 13.1 and 13.6 | content of b-sheet in the WGR domain (WGR domain of PARP2 [8]): 27.8 and 25.8 and 28.5 | content of random coil in the WGR domain (WGR domain of PARP2 [8]): 46 and 48.5 and 46.1 | content of turn in the WGR domain (WGR domain of PARP2 [8]): 12.3 and 12.6 and 11.7

Np nucleosome (s603-42A, 187 bp DNA)
K half (PARP2 (Mus musculus) [9]): 40 nM

[Ca+2].[Cl-].[Cl-] [Ca2+, CaCl2]
effect of ions on the CD spectrum / conformation of PARP2 (PARP2 [4]): similar | Kd (WGR domain of PARP2 [5]): 29000 ± 14000 nM | effect of ions on intensity of tryptophan fluorescence of the WGR domain (WGR domain of PARP2 [5]): considerably lower than the effect of Zn^2+ ions | effect of ions on the nucleosome structure [6]: minimally affect | effect of ions on the structure of nucleosomes in PARP2-nucleosome complexes ([6]; PARP2 50 nM): not changed | effect of ions on the structure of the WGR domain (CD) (WGR domain of PARP2 [8]): only minimal changes | content of a-helix in the WGR domain (WGR domain of PARP2 [8]): 14.9 and 10.9 and 11.1 | content of b-sheet in the WGR domain (WGR domain of PARP2 [8]): 30.1 and 29.5 and 31.3 | content of random coil in the WGR domain (WGR domain of PARP2 [8]): 43.7 and 47.2 and 46.3 | content of turn in the WGR domain (WGR domain of PARP2 [8]): 11.4 and 12.5 and 11.3

O=C(O)CN(CCN(CC(=O)O)CC(=O)O)CC(=O)O [EDTA, ethylenediaminetetraacetic acid]
effect of EDTA on PARP2-nucleosome complexes preformed in the presence of Zn2+ ([6]; EDTA 10 mM, Zn2+ 0.15 mM, PARP2 50 nM): does not reverse the changes in the nucleosome structure | effect of EDTA on PARylation (PARP2 [7]; Mg2+ 5 mM): fully reverses the effect of Mg^2+ ions | effect of EDTA on PARylation (PARP2 [7]; Zn2+ 0.3 mM): strongly enhances the efficiency of PARylation | effect of EDTA on PARylation (PARP2 [7]; absence of divalent ions): does not affect PARylation

B1: PARP2: Recombinant mouse full-length PARP2 obtained in the baculovirus expression system using Sf9 insect cells (protein)
chain: MAPRRQRSGSGRRVLNEAKKVDNGNKATEDDSPPGKKMRTCQRKGPMAGGKDADRTKDNRDSVKTLLLKGKAPVDPECAAKLGKAHVYCEGDDVYDVMLNQTNLQFNNNKYYLIQLLEDDAQRNFSVWMRWGRVGKTGQHSLVTCSGDLNKAKEIFQKKFLDKTKNNWEDRENFEKVPGKYDMLQMDYAASTQDESKTKEEETLKPESQLDLRVQELLKLICNVQTMEEMMIEMKYDTKRAPLGKLTVAQIKAGYQSLKKIEDCIRAGQHGRALVEACNEFYTRIPHDFGLSIPPVIRTEKELSDKVKLLEALGDIEIALKLVKSERQGLEHPLDQHYRNLHCALRPLDHESNEFKVISQYLQSTHAPTHKDYTMTLLDVFEVEKEGEKEAFREDLPNRMLLWHGSRLSNWVGILSHGLRVAPPEAPITGYMFGKGIYFADMSSKSANYCFASRLKNTGLLLLSEVALGQCNELLEANPKAQGLLRGKHSTKGMGKMAPSPAHFITLNGSTVPLGPASDTGILNPEGYTLNYNEFIVYSPNQVRMRYLLKIQFNFLQLW
Kd (DNA; 18 bp duplex oligonucleotides): 11 nM | Kd (DNA; 147 bp DNA having a gap): 58 nM | Kd (DNA; 147 bp intact DNA): 840 nM | PARP2 concentration at which complexes with nucleosomes are formed (NP nucleosomes; absence of divalent ions): ≥ 12.5 nM | EC50 (NP nucleosomes; absence of divalent ions, read-out: PARP2 concentration at ~50% decrease in the number of free nucleosomes (50% of nucleosomes in complexes)): 40 ± 10 nM | PARP2 concentration above which aggregation prevents separation of complexes in the gel (NP nucleosomes; presence of 0.3 mM Zn2+): above 50 nM | Kd (nucleosome; ref 28): 150 nM | Kd (nucleosome; ref 59): 76 nM
